Reference: ChEMBL document CHEMBL3352588, “Targeting the homologous recombination pathway by small molecule modulators” (Bioorg Med Chem Lett, 2014)

Legend:
[1] = biological target: Bifunctional 3'-5' exonuclease/ATP-dependent helicase WRN (Homo sapiens, UniProt Q14191); experiment: Inhibition of WRN helicase (unknown origin)
[2] = biological target: DNA repair protein RAD51 homolog 1 (Homo sapiens) (UniProt Q06609); experiment: Inhibition of RAD51 (unknown origin) binding to ssDNA
[3] = biological target: T1, DNA repair protein RAD51 homolog 1 (Homo sapiens) (UniProt Q06609); experiment: Inhibition of RAD51 in human HeLa cells expressing DR-GFP construct assessed as reduction in […]-induced homologous recombination at 20 uM; type: cell-based
T1 sequence (whole entry): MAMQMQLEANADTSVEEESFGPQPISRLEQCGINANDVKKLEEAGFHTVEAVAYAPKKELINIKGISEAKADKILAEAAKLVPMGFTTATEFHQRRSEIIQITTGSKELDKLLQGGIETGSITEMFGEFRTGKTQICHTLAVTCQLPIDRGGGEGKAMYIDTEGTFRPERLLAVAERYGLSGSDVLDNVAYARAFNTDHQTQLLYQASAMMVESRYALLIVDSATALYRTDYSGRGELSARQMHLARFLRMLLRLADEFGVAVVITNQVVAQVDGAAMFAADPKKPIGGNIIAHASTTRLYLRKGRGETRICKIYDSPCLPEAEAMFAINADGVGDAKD

[4] = biological target: T1, DNA repair protein RAD51 homolog 1 (Homo sapiens); experiment: Inhibition of RAD51 in human MCF7 cells assessed as reduction in IR-induced RAD51 foci formation at 20 uM; type: cell-based
[5] = biological target: T1, DNA repair protein RAD51 homolog 1 (Homo sapiens); experiment: Induction of RAD51 in cisplatin-treated neonatal human skin fibroblast assessed as increase in survival at 7.5 uM relative to untreated control
[6] = biological target: T2, DNA repair and recombination protein RAD54-like (Homo sapiens, UniProt Q92698); experiment: Inhibition of RAD54 (unknown origin) ATPase activity assessed as generation of reactive oxygen species
T2 sequence (Q92698 whole entry): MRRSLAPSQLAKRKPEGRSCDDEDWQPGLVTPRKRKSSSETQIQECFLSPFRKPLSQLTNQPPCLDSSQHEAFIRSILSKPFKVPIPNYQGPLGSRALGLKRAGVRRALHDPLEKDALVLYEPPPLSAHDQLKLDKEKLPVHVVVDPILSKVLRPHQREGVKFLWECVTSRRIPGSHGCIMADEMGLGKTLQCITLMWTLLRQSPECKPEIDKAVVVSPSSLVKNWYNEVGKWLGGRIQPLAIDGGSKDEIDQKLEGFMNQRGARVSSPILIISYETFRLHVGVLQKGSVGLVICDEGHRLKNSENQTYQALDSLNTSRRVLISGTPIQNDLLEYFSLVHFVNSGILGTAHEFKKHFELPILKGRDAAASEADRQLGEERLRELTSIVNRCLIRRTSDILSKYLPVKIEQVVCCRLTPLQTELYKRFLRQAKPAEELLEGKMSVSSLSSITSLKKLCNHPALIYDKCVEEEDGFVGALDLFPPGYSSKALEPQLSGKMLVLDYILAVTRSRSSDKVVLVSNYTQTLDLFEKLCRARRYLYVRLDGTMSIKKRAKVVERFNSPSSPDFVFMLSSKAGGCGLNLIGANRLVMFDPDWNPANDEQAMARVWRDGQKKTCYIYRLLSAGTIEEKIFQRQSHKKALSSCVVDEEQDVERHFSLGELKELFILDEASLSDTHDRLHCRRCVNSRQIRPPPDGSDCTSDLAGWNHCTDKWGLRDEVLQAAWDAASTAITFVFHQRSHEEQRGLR

Chain of Bifunctional 3'-5' exonuclease/ATP-dependent helicase WRN (Q14191 whole entry): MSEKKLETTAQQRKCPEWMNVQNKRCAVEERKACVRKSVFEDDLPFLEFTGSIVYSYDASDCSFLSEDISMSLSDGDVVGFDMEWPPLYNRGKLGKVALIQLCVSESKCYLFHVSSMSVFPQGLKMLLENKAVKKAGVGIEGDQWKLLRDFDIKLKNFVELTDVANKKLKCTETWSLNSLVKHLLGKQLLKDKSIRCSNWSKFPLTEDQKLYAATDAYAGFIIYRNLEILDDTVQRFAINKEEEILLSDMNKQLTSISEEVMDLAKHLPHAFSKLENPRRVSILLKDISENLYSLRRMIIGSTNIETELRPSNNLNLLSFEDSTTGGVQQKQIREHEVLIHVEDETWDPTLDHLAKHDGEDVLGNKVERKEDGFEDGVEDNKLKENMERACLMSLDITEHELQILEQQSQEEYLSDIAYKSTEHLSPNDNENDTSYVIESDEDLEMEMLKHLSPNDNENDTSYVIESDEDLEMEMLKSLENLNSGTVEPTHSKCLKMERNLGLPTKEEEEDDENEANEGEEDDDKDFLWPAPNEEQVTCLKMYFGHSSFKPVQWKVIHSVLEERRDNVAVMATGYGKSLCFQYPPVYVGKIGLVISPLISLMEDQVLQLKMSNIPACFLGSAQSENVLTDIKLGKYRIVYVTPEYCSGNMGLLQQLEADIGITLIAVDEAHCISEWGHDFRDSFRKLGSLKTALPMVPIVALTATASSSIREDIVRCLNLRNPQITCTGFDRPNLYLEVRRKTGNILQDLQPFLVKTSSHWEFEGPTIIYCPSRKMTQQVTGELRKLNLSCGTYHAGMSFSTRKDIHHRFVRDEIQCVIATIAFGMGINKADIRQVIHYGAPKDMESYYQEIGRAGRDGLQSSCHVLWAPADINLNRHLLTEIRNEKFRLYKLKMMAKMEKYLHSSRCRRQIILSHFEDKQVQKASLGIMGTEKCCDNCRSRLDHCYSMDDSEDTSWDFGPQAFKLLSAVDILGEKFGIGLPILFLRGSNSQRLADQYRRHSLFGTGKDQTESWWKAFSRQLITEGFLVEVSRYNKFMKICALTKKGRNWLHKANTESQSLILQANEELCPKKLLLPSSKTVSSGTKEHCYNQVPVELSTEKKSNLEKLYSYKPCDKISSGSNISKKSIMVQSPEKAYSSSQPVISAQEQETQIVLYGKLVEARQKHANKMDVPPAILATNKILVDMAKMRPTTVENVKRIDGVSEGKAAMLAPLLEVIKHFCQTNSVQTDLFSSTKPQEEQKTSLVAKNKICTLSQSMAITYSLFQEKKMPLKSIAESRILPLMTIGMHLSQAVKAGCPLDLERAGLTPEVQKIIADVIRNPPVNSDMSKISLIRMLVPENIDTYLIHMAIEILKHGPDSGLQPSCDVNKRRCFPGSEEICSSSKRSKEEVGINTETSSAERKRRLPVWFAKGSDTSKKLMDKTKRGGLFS

With CCC(=O)OCN1C(=O)C=CC1=O as the compound, how does the IC50 [1] read?
The IC50 was 20 µM.

For COc1ccc(C2=C(N3CCOCC3)C(=O)N(c3ccc(Cl)c(Cl)c3)C2=O)cc1, which EC50 [2] is on record?
The EC50 was 44 µM.

Which fold change (FC) [3] does the source give for O=S(=O)(Cc1ccccc1)N1C=Cc2ccccc2C1c1c[nH]c2ccccc12 (configuration not stated) here?
The fold change (FC) was 10.

And the fold change (FC) [4]?
The fold change (FC) was 2.

Which fold change (FC) [5] does the source give for O=C(Nc1ccc(Br)cc1)c1ccc(Br)c(S(=O)(=O)NCc2ccccc2)c1 here?
Its fold change (FC) is 1.5.

With COC1=C(N)C(=O)c2nc(-c3nc(C(=O)O)c(C)c(-c4ccc(OC)c(OC)c4O)c3N)ccc2C1=O [STREPTONIGRIN] as the compound, how does the EC50 [6] read?
Its EC50 is 16.5 µM.

O=C(Nc1ccc(F)c(C(F)(F)F)c1)Nc1nnc(-c2ccncc2)s1 was tested. Which IC50 [1] did it give?
The IC50 was 5 µM.
